Assay results: publication PMC8224972, “Thiazide and other Cl-benzenesulfonamide-bearing clinical drug affinities for human carbonic anhydrases” (PLoS ONE, 2021)

Biological target: CA I (Homo sapiens, UniProt P00915)
Experiment: Fluorescence-based thermal shift assay (FTSA)
Conditions: not given

CA I, sequence (P00915 whole entry): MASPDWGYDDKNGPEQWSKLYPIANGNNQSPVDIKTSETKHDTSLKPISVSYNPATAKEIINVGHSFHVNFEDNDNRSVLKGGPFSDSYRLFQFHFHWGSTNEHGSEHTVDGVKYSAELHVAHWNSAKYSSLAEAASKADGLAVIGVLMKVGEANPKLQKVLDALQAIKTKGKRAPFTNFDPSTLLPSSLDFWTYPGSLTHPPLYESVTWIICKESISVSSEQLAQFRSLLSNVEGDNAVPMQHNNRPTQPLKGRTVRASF

| SMILES | Kd |
| --- | --- |
| Cc1cccc(C)c1NC(=O)c1cc(S(N)(=O)=O)c(Cl)cc1O [Compound 14, xipamide] | 56 µM |
| CCC1NC(=O)c2cc(S(N)(=O)=O)c(Cl)cc2N1 (stereo not shown) [Compound 18, quinethazone] | 51 µM |
| NS(=O)(=O)c1cc2c(cc1Cl)NC(c1ccccc1)NC2=O (stereo not shown) [Compound 19, fenquizone] | 13 µM |

Biological target: CA II (Homo sapiens, UniProt P00918)
Experiment: Fluorescence-based thermal shift assay (FTSA)
Conditions: not given

| SMILES | Kd |
| --- | --- |
| Cc1cccc(C)c1NC(=O)c1cc(S(N)(=O)=O)c(Cl)cc1O [Compound 14, xipamide] | 10 µM |
| CCC1NC(=O)c2cc(S(N)(=O)=O)c(Cl)cc2N1 (stereo not shown) [Compound 18, quinethazone] | 14 µM |
| NS(=O)(=O)c1cc2c(cc1Cl)NC(c1ccccc1)NC2=O (stereo not shown) [Compound 19, fenquizone] | 15 µM |

Same assay, conditions: FTSA

| SMILES | Binding to CA II in words |
| --- | --- |
| CCC1NC(=O)c2cc(S(N)(=O)=O)c(Cl)cc2N1 (stereo not shown) [Compound 18, quinethazone] | weak binders |
| NS(=O)(=O)c1cc2c(cc1Cl)NC(c1ccccc1)NC2=O (stereo not shown) [Compound 19, fenquizone] | weak binders |

Biological target: CA III (Homo sapiens, UniProt P07451)
Sequence (P07451 whole entry): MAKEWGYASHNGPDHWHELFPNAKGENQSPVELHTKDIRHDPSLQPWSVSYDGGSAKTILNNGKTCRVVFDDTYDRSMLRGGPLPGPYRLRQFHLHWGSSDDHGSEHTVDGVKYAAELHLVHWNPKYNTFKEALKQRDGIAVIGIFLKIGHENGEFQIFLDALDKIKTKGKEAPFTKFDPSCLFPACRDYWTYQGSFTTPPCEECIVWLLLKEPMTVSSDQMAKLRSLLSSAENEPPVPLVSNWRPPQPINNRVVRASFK
Experiment: Fluorescence-based thermal shift assay (FTSA)
Conditions: not given

| SMILES | Kd |
| --- | --- |
| NS(=O)(=O)c1cc(Cl)c(Cl)c(S(N)(=O)=O)c1 [Compound 2, Dichlorphenamide] | 0.55 µM |
| CC1Cc2ccccc2N1NC(=O)c1ccc(Cl)c(S(N)(=O)=O)c1 (stereo not shown) [Compound 12, Indapamide] | 11 µM |
| Cc1cccc(C)c1NC(=O)c1cc(S(N)(=O)=O)c(Cl)cc1O [Compound 14, xipamide] | > 200 µM |
| CCC1NC(=O)c2cc(S(N)(=O)=O)c(Cl)cc2N1 (stereo not shown) [Compound 18, quinethazone] | 180 µM |
| NS(=O)(=O)c1cc2c(cc1Cl)NC(c1ccccc1)NC2=O (stereo not shown) [Compound 19, fenquizone] | > 200 µM |

Biological target: CA IV (Homo sapiens, UniProt P22748)
Sequence (P22748 19-312): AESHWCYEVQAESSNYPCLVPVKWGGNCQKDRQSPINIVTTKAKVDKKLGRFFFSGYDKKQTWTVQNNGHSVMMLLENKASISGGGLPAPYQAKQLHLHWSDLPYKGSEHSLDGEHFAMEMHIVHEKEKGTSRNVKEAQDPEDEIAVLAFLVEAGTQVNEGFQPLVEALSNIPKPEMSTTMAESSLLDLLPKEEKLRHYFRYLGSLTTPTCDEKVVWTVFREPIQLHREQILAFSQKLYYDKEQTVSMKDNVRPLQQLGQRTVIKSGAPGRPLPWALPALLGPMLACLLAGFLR
Experiment: Fluorescence-based thermal shift assay (FTSA)
Conditions: not given

| SMILES | Kd |
| --- | --- |
| CC1Cc2ccccc2N1NC(=O)c1ccc(Cl)c(S(N)(=O)=O)c1 (stereo not shown) [Compound 12, Indapamide] | 0.047 µM |
| Cc1cccc(C)c1NC(=O)c1cc(S(N)(=O)=O)c(Cl)cc1O [Compound 14, xipamide] | 1.4 µM |
| CCC1NC(=O)c2cc(S(N)(=O)=O)c(Cl)cc2N1 (stereo not shown) [Compound 18, quinethazone] | 2.1 µM |
| NS(=O)(=O)c1cc2c(cc1Cl)NC(c1ccccc1)NC2=O (stereo not shown) [Compound 19, fenquizone] | 4.4 µM |

Biological target: CA VA (Homo sapiens, UniProt P35218)
Sequence (P35218 39-305): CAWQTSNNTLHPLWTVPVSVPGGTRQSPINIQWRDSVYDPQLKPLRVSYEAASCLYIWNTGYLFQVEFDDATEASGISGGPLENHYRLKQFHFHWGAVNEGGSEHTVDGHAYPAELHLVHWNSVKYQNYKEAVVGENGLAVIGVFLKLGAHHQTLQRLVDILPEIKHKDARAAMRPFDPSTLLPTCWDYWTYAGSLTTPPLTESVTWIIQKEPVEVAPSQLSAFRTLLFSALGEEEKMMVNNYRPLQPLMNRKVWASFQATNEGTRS
Experiment: Fluorescence-based thermal shift assay (FTSA)
Conditions: not given

| SMILES | Kd |
| --- | --- |
| NS(=O)(=O)c1cc(Cl)c(Cl)c(S(N)(=O)=O)c1 [Compound 2, Dichlorphenamide] | 0.025 µM |
| CC1Cc2ccccc2N1NC(=O)c1ccc(Cl)c(S(N)(=O)=O)c1 (stereo not shown) [Compound 12, Indapamide] | 0.28 µM |
| Cc1cccc(C)c1NC(=O)c1cc(S(N)(=O)=O)c(Cl)cc1O [Compound 14, xipamide] | > 200 µM |
| CCC1NC(=O)c2cc(S(N)(=O)=O)c(Cl)cc2N1 (stereo not shown) [Compound 18, quinethazone] | 7.1 µM |
| NS(=O)(=O)c1cc2c(cc1Cl)NC(c1ccccc1)NC2=O (stereo not shown) [Compound 19, fenquizone] | 11 µM |

Biological target: CA VB (Homo sapiens, UniProt Q9Y2D0)
Sequence (Q9Y2D0 34-317): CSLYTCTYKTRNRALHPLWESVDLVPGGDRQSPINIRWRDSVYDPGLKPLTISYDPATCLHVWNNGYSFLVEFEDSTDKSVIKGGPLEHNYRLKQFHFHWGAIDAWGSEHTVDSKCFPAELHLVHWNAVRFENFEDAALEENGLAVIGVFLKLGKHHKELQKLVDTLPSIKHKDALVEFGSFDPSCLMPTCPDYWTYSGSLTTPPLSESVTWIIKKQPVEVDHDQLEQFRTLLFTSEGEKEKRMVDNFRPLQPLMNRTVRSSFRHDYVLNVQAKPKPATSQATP
Experiment: Fluorescence-based thermal shift assay (FTSA)
Conditions: not given

| SMILES | Kd |
| --- | --- |
| NS(=O)(=O)c1cc(Cl)c(Cl)c(S(N)(=O)=O)c1 [Compound 2, Dichlorphenamide] | 0.00025 µM |
| CC1Cc2ccccc2N1NC(=O)c1ccc(Cl)c(S(N)(=O)=O)c1 (stereo not shown) [Compound 12, Indapamide] | 0.013 µM |
| Cc1cccc(C)c1NC(=O)c1cc(S(N)(=O)=O)c(Cl)cc1O [Compound 14, xipamide] | 61 µM |
| CCC1NC(=O)c2cc(S(N)(=O)=O)c(Cl)cc2N1 (stereo not shown) [Compound 18, quinethazone] | 15 µM |
| NS(=O)(=O)c1cc2c(cc1Cl)NC(c1ccccc1)NC2=O (stereo not shown) [Compound 19, fenquizone] | 19 µM |

Biological target: CA VI (Homo sapiens, UniProt P23280)
Sequence (P23280 18-308): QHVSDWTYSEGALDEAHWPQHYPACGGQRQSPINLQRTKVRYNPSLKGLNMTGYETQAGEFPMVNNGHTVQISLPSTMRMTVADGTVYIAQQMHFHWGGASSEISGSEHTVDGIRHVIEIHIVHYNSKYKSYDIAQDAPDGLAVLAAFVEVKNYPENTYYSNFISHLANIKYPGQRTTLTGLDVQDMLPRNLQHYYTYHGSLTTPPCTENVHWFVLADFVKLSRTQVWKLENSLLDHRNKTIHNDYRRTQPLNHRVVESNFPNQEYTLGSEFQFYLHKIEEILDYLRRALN
Experiment: Fluorescence-based thermal shift assay (FTSA)
Conditions: not given

| SMILES | Kd |
| --- | --- |
| Cc1cccc(C)c1NC(=O)c1cc(S(N)(=O)=O)c(Cl)cc1O [Compound 14, xipamide] | 36 µM |
| CCC1NC(=O)c2cc(S(N)(=O)=O)c(Cl)cc2N1 (stereo not shown) [Compound 18, quinethazone] | 3.9 µM |
| NS(=O)(=O)c1cc2c(cc1Cl)NC(c1ccccc1)NC2=O (stereo not shown) [Compound 19, fenquizone] | 5.3 µM |

Biological target: CA VII (Homo sapiens, UniProt P43166)
Sequence (P43166 whole entry): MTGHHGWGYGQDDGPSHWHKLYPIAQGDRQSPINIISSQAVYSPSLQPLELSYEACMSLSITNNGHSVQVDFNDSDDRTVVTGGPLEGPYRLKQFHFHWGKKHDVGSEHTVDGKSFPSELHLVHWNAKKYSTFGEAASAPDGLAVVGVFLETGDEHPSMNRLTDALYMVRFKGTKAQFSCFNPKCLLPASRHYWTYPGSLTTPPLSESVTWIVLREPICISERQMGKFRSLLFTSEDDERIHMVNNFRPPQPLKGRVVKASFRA
Experiment: Fluorescence-based thermal shift assay (FTSA)
Conditions: not given

| SMILES | Kd |
| --- | --- |
| Cc1cccc(C)c1NC(=O)c1cc(S(N)(=O)=O)c(Cl)cc1O [Compound 14, xipamide] | 93 µM |
| CCC1NC(=O)c2cc(S(N)(=O)=O)c(Cl)cc2N1 (stereo not shown) [Compound 18, quinethazone] | 36 µM |
| NS(=O)(=O)c1cc2c(cc1Cl)NC(c1ccccc1)NC2=O (stereo not shown) [Compound 19, fenquizone] | 27 µM |

Biological target: CA IX (Homo sapiens, UniProt Q16790)
Experiment: Fluorescence-based thermal shift assay (FTSA)
Conditions: not given

| SMILES | Kd |
| --- | --- |
| CC1Cc2ccccc2N1NC(=O)c1ccc(Cl)c(S(N)(=O)=O)c1 (stereo not shown) [Compound 12, Indapamide] | 0.14 µM |
| Cc1cccc(C)c1NC(=O)c1cc(S(N)(=O)=O)c(Cl)cc1O [Compound 14, xipamide] | 15 µM |
| CCC1NC(=O)c2cc(S(N)(=O)=O)c(Cl)cc2N1 (stereo not shown) [Compound 18, quinethazone] | 2.3 µM |
| NS(=O)(=O)c1cc2c(cc1Cl)NC(c1ccccc1)NC2=O (stereo not shown) [Compound 19, fenquizone] | 2.7 µM |

Biological target: CA XII (Homo sapiens, UniProt O43570)
Sequence (O43570 25-354): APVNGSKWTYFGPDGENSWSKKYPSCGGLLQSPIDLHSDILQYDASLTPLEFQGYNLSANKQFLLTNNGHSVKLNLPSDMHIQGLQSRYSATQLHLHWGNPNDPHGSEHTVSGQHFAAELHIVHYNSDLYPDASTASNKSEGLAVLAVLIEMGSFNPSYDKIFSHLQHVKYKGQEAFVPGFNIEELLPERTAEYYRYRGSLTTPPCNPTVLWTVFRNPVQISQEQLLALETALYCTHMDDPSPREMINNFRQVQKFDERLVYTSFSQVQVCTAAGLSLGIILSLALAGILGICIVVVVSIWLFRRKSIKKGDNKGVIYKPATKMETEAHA
Experiment: Fluorescence-based thermal shift assay (FTSA)
Conditions: not given

| SMILES | Kd |
| --- | --- |
| Cc1cccc(C)c1NC(=O)c1cc(S(N)(=O)=O)c(Cl)cc1O [Compound 14, xipamide] | 26 µM |
| CCC1NC(=O)c2cc(S(N)(=O)=O)c(Cl)cc2N1 (stereo not shown) [Compound 18, quinethazone] | 20 µM |
| NS(=O)(=O)c1cc2c(cc1Cl)NC(c1ccccc1)NC2=O (stereo not shown) [Compound 19, fenquizone] | 28 µM |

Biological target: CA XIII (Homo sapiens, UniProt Q8N1Q1)
Sequence (Q8N1Q1 whole entry): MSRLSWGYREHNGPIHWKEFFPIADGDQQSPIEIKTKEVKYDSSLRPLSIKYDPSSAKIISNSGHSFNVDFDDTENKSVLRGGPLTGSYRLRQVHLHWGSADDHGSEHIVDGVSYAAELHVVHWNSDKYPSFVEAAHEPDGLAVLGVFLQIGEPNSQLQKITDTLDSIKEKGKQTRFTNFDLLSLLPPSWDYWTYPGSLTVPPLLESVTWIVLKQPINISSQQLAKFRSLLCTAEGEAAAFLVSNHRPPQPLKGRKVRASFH
Experiment: Fluorescence-based thermal shift assay (FTSA)
Conditions: not given

| SMILES | Kd |
| --- | --- |
| NS(=O)(=O)c1cc(Cl)c(Cl)c(S(N)(=O)=O)c1 [Compound 2, Dichlorphenamide] | 0.0045 µM |
| Cc1cccc(C)c1NC(=O)c1cc(S(N)(=O)=O)c(Cl)cc1O [Compound 14, xipamide] | 0.68 µM |
| CCC1NC(=O)c2cc(S(N)(=O)=O)c(Cl)cc2N1 (stereo not shown) [Compound 18, quinethazone] | 1.1 µM |
| NS(=O)(=O)c1cc2c(cc1Cl)NC(c1ccccc1)NC2=O (stereo not shown) [Compound 19, fenquizone] | 0.93 µM |

Biological target: CA XIV (Homo sapiens, UniProt Q9ULX7)
Sequence (Q9ULX7 16-337): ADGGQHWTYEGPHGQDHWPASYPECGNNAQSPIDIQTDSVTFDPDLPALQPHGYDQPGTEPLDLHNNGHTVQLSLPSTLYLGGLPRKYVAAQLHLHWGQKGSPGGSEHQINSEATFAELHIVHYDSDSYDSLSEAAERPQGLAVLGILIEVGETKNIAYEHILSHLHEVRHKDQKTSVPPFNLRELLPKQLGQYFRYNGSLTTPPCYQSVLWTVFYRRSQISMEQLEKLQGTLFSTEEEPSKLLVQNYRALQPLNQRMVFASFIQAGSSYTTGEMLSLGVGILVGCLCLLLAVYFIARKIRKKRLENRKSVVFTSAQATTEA
Experiment: Fluorescence-based thermal shift assay (FTSA)
Conditions: not given

| SMILES | Kd |
| --- | --- |
| NS(=O)(=O)c1cc(Cl)c(Cl)c(S(N)(=O)=O)c1 [Compound 2, Dichlorphenamide] | 0.00092 µM |
| CC1Cc2ccccc2N1NC(=O)c1ccc(Cl)c(S(N)(=O)=O)c1 (stereo not shown) [Compound 12, Indapamide] | 0.088 µM |
| Cc1cccc(C)c1NC(=O)c1cc(S(N)(=O)=O)c(Cl)cc1O [Compound 14, xipamide] | 15 µM |
| CCC1NC(=O)c2cc(S(N)(=O)=O)c(Cl)cc2N1 (stereo not shown) [Compound 18, quinethazone] | 4.7 µM |
| NS(=O)(=O)c1cc2c(cc1Cl)NC(c1ccccc1)NC2=O (stereo not shown) [Compound 19, fenquizone] | 5.7 µM |
